# Reference: article PMC8533149 (Biomolecules, 2021)
# Tested on: HIV-1 LTR-III G-quadruplex (FAM/TAMRA-labeled LTR-III)
# Assay: FRET melting assay, LTR-III G4
# Type: binding
# Details: Table S1 primary screening, ligand:ODN 50:1, singlicate
# Protocol: To evaluate stabilizing properties of the ligands in a complex with oligodeoxyribonucleotides (ODNs) melting with fluorescence registration was used. ODN (0.5 μM) (Table 1), labeled with 6-carboxyfluorescein (FAM) and 6-carboxytetramethylrhodamine (TAMRA) at the 5′- and 3′-end, respectively, were folded in lithium cacodylate buffer (10 mM, pH 7.4) with 100 mM KCl by heating at 95 °C for 5 min and gradually cooling to r.t. GFP chromophore analogs (5 mM solution in DMSO) were diluted with the same buffer to the final concentration of 25 μM and mixed with an equal volume of 0.5 μM ODN solution resulting in a molar ratio of 50:1 (total volume was 50 μL). For the titration experiments molar ratios of 20:1 and 2:1 were used. Samples were analyzed using DTprime qPCR system (DNA-Technology LLC, Moscow, Russia). Fluorescence was registered by detection of FAM emission at 520 nm upon excitation at 495 nm in the temperature range of 30–95 °C with 1 °C/min gradient. Tm was determined using the instrument software and ΔTm was calculated relative to ODN Tm in a buffer solution containing 0.25% (v/v) DMSO. The primary and secondary screening were carried out in singlicate and triplicate, respectively.
row,SMILES,LTR-III ΔTm [°C]
1,CC1=NC(=Cc2ccc(C(=O)O)cc2)C(=O)N1C [AI 89],-0.5
2,COC(=O)c1ccc(C=C2N=C(C=Cc3ccc(OC)cc3)N(C)C2=O)cc1 [AI 116],0.8
3,COc1ccc(C=CC2=NC(=Cc3cc(OC)ccc3OC)C(=O)N2C)cc1 [AI 118],-0.1
4,COc1ccc(C=CC2=NC(=Cc3ccc([N+](=O)[O-])cc3)C(=O)N2C)cc1 [AI 119],1.4
5,COc1ccc(C=CC2=NC(=Cc3cc4cc(OC)ccc4cc3OC)C(=O)N2C)cc1 [AI 126],1.6
6,CC(C)OC(=O)c1noc(=O)c(O)c1-c1ccc(O)cc1 [AL 23],0
7,CC(C)OC(=O)c1noc(C(=O)NC2CCCCC2)c1-c1cccs1 [AL 25],-0.1
8,COc1ccc(NC(=O)c2onc(C(=O)OC(C)C)c2-c2ccc(OC)cc2)cc1 [AL 45],0.2
9,CCNCC.CCOC(=O)c1noc(=O)c(O)c1-c1ccccc1 [AL 58],0.1
10,COc1ccc(C=CC2=NC(=Cc3ccnc4ccccc34)C(=O)N2C)cc1 [AL 122],-0.6
11,COc1ccc(C=CC2=NC(=Cc3ccnc4ccccc34)C(=O)N2C)cc1 [AL 125],1.7
12,CCC1=NC(=Cc2cc(C(C)(C)C)c(O)c(C(C)(C)C)c2)C(=O)N1C [AL 135.2],-1.3
13,CN(C)c1ccc(C=C2NC(=S)NC2=O)cc1 [AL 165],-0.2
14,CSC1=NC(=Cc2ccc(N(C)C)cc2)C(=O)N1 [AL 166.1],0.1
15,CCN(CC)c1ccc(C=C2NC(=S)NC2=O)cc1 [AL 172],-0.2
16,CN1C(=O)C(=Cc2ccc(O[Si](c3ccccc3)(c3ccccc3)C(C)(C)C)cc2)N=C1c1ccccc1 [Amm 75],-0.3
17,CN1C(=O)C(=Cc2ccc(O)cc2)N=C1CCCCNC(=O)OC(C)(C)C [Boc-AV-GFP],0.2
18,COc1cc(C=C2SC(=S)NC2=O)cc(OC)c1O [DOM],-0.6
19,CC1=NC(=Cc2ccc(O)cc2)C(=O)N1 [GA 01],-0.4
20,CN1C=NC(=Cc2ccc(O)cc2)C1=O [GA 02],-0.4
21,CC1=NC(=Cc2ccc(O)cc2)C(=O)N1C [GA 03],0.5
22,CCC1=NC(=Cc2ccc(O)cc2)C(=O)N1C [GA 04],-0.1

row,SMILES,LTR-III ΔTm [°C]
1,CCCC1=NC(=Cc2ccc(O)cc2)C(=O)N1C [GA 05],-0.5
2,CC(C)C1=NC(=Cc2ccc(O)cc2)C(=O)N1C [GA 06],-0.7
3,CC1=NC(=Cc2ccc(O)cc2)C(=O)N1CCO [GA 12],0.3
4,CCC1=NC(=Cc2ccc(O)cc2)C(=O)N1O [GA 15],-0.1
5,CON1C(=O)C(=Cc2ccc(O)cc2)N=C1C [GA 16],0.3
6,CC(C)CCC1=NC(=Cc2ccc(O)cc2)C(=O)N1C [GA 18],-0.1
7,CCN(CC)c1ccc(C=C2N=C(C)N(C)C2=O)cc1 [GC 01],0.4
8,CCN(CC)c1ccc(C=C2N=C(C)N(CCCC(=O)O)C2=O)cc1 [GC 03],0.4
9,CCN(CC)c1ccc(C=C2N=C(C)N(C)C2=O)cc1 [GC 04],0
10,CC1=NC(=Cc2c[nH]c3ccccc23)C(=O)N1C [GC 07],-0.4
11,CN1C(=O)C(=Cc2ccc(O)cc2)N=C1Cc1ccccc1 [GFP-2-Bn],-1.5
12,CNC(=O)C(=Cc1ccc(Br)cc1)NC(=O)c1ccccc1 [GR 83],-0.8
13,CN1C(=O)C(=Cc2ccc(OCC(NC(=O)OC(C)(C)C)C(=O)O)cc2)N=C1c1ccccc1 (stereo not shown) [GR 161],-0.2
14,O=C1NC(=S)SC1=Cc1ccc(O)cc1 [HBR],-0.2
15,Cc1cc(/C=C2\SC(=S)NC2=O)ccc1O [HMBR],-0.6
16,COc1ccc(C=C2N=C3C(=O)NCCN3C2=O)cc1 [JL 06.1],0.1
17,COc1ccc(C=C2N=C3C(=O)NCCN3C2=O)cc1OC [JL 06.2],0.4
18,CCN(CC)c1ccc(/C=C2\N=C3C(=O)NCCN3C2=O)cc1 [JL 19],0.1
19,CC(=O)Oc1ccc(C=C2N=C(C=C(OC(=O)c3ccc(C)cc3)c3ccc(C)cc3)N(C)C2=O)cc1 [M 202],-0.6
20,CN1C(=O)C(=Cc2ccc(OC(=O)c3ccccc3)cc2)N=C1C=C(OC(=O)c1ccccc1)c1ccccc1 [M 228],-0.8
21,CCC(=O)Oc1ccc(C=C2N=C(CC)OC2=O)cc1 [M 292],-0.6
22,O=C1NC(C=Cc2cc(Br)c(O)c(Br)c2)=NC1=Cc1ccc(O)cc1 [M 295],-0.5

row,SMILES,LTR-III ΔTm [°C]
1,COc1ccc(C=C2N=C(C)N(OC)C2=O)cc1 [M 312],-0.2
2,CCC1=NC(=Cc2ccc(O)cc2)C(=O)N1OC [M 316],-0.3
3,COc1ccc(C=C2N=C(C(C)(C)C)N(C)C2=O)cc1 [M 440],-0.1
4,CCC1=NC(=Cc2ccc(OC)cc2)C(=O)N1C [M 497a2],-0.4
5,CON1C(=O)C(=Cc2ccc(O)cc2)N=C1CCC(C)C [M 552],0
6,CC1=NC(=Cc2ccc(O)c(F)c2)C(=O)N1C [M 556],-0.2
7,CON1C(=O)C=NC(=Cc2ccc(O)cc2)C1=O [M 577],0.1
8,C=CCN1C(=O)C(=Cc2ccc(O[Si](c3ccccc3)(c3ccccc3)C(C)(C)C)cc2)N=C1C [M 653],-0.2
9,CC(=O)Oc1ccc(C=C2N=C(C)N(CCNC(=O)OC(C)(C)C)C2=O)cc1 [M 678],-0.4
10,CCN(CC)c1ccc(C=C2N=C(C)N(C)C2=O)c(B(F)F)c1 [M 739],-0.4
11,CCC1=NC(=Cc2ccc(N(CC)CC)cc2)C(=O)N1C [M 747],0.6
12,CN1C(=O)C(=Cc2ccc(O)cc2)N=C1c1ccccc1 [M 750],-0.2
13,CC1=NC(=Cc2ccc(O)cc2)C(=O)N(O)C1=O [M 800],-0.2
14,CC(C)CCC1=NC(=Cc2ccc(O)cc2)C(=O)N1 [M 803],-0.1
15,CCN(CC)c1ccc(C=C2N=C(C)N(CCCC(=O)O)C2=O)cc1 [M 820],0.1
16,CC1=NC(=Cc2cc(F)c(O)c(F)c2)C(=O)N1CCCC(=O)O [M 894],-0.3
17,CCN(CC)c1ccc(C=C2N=C(C=Cc3ccncc3)N(C)C2=O)cc1 [M 895],0.8
18,CC1=NC(=Cc2cc(Br)c(O)c(Br)c2)C(=O)N1C [M 906],-2.7
19,COc1ccc(C(=O)Oc2ccccc2)cc1 [M 939],-1.1
20,CCn1nnc2c(Nc3ccccc3)cccc2c1=O [M 958A],-0.7
21,CN(C)C=CC1=NC(=Cc2ccc(O)cc2)C(=O)N1C [M 995a],0.1
22,CN1C(=O)C(=Cc2ccc(O)cc2)N=C1C=Cc1ccccc1 [M 996a],0.1

row,SMILES,LTR-III ΔTm [°C]
1,CC(=O)Oc1ccc(C=C2N=C(C=Cc3ccccc3)N(C)C2=O)cc1 [M 1009A],0.5
2,CC(=O)Oc1ccc(C=C2N=C(C=Cc3ccncc3)N(C)C2=O)cc1 [M 1009B],0.5
3,CCN(CC)c1ccc(C=C2N=C(C)NC2=O)cc1 [M 1045],0.1
4,CN(C)c1ccc(C(O)(c2ccc(N(C)C)cc2)c2ccccn2)cc1 [M 1122],-0.6
5,COc1ccc(C(O)(c2ccccc2)c2ccccn2)cc1 (stereo not shown) [M 1136],-0.7
6,CC1=CC(C)(C)N(C)c2ccc(C=C3N=C(C)N(C)C3=O)cc21 [M 1152],0.6
7,CNc1ccc(C=C2N=C(C)N(C)C2=O)cc1N [M 1165],0.9
8,Oc1cccc2nc3ccccc3nc12 [M 1255],-0.6
9,CC1=NC(=Cc2cccc([N+](=O)[O-])c2)C(=O)N1C [M 1257],-0.9
10,CC1=NC(=Cc2cccc(O)c2)C(=O)N1C [M 1300],0.2
11,CCOC(=O)CN1C(=O)C(=Cc2cc3c4c(c2)CCCN4CCC3)N=C1C [M 1343],0
12,CCOC(=O)/C=C/c1ccc(O[Si](c2ccccc2)(c2ccccc2)C(C)(C)C)cc1 [M 1352],-0.5
13,CC(C)(C)[Si](Oc1ccc(/C=C/CO)cc1)(c1ccccc1)c1ccccc1 [M 1359],0.1
14,COc1ccc2cc(C(c3ccc(C)cc3)C(c3ccc(C)cc3)c3ccc4cc(OC)ccc4c3)ccc2c1 (stereo not shown) [M 1362.2],-0.6
15,CC(C)(C)[Si](Oc1ccc(C=CC=O)cc1)(c1ccccc1)c1ccccc1 [M 1373.2],-0.5
16,CC1=NC(=CC=Cc2ccc(O)cc2)C(=O)N1C [M 1378],-0.7
17,CCN1C(=O)C(=CC=Cc2ccc(O)cc2)N=C1C [M 1379.2],-0.2
18,CCC1=NC(=Cc2ccc(O[Si](c3ccccc3)(c3ccccc3)C(C)(C)C)cc2)C(=O)N1O[Si](c1ccccc1)(c1ccccc1)C(C)(C)C [M 1505],-0.3
19,CCCC1=NC(=Cc2ccc(O[Si](c3ccccc3)(c3ccccc3)C(C)(C)C)cc2)C(=O)N1C [M 1550],-0.1
20,CCC1=NC(=Cc2ccc(O[Si](c3ccccc3)(c3ccccc3)C(C)(C)C)cc2)C(=O)N1C [M 1557],-0.1
21,CC1=NC(=Cc2ccco2)C(=O)N1C [M 1583.2],-0.5
22,CC1=NC(=Cc2cccs2)C(=O)N1C [M 1583.3],0.1
